From patent publication US7160907B2, “Pleuromutilin derivatives” (SmithKline Beecham P.L.C., priority 2000, dated 2007)

Assays:
Type in all cases: cell-based
[1] = tested on: Moraxella catarrhalis 1502; test: conventional MIC assay, Moraxella catarrhalis 1502; conditions: against Moraxella catarrhalis 1502
Description: (§1) Compounds of the present invention were assessed for anti-bacterial activity in a conventional MIC assay against a range of pathogenic organisms.

[2] = tested on: Staphylococcus aureus Oxford; test: conventional MIC assay, Staphylococcus aureus Oxford; conditions: against Staphylococcus aureus Oxford
Description: as §1

[3] = tested on: Haemophilus influenzae Q1; test: conventional MIC assay, Haemophilus influenzae Q1; conditions: against Haemophilus influenzae Q1
Description: as §1

[4] = tested on: Streptococcus pneumoniae 1629; test: conventional MIC assay, Streptococcus pneumoniae 1629; conditions: against Streptococcus pneumoniae 1629
Description: as §1

Measured: MIC

C=C[C@]1(C)C[C@@H](OC(=O)NC(=O)O[C@H]2COC[C@H]2OC(N)=O)[C@]2(C)[C@H](C)CC[C@]3(CCC(=O)[C@H]32)[C@@H](C)[C@@H]1O (racemic) [Example 118, Mutilin 14-[N-(cis-4-carbamoyloxytetrahydrofuran-3-yloxycarbonyl)]carbamate]
≤ 4 µg/mL: all assays above

C=C[C@]1(C)C[C@@H](OC(=O)NC(=O)OCc2ncc(C(N)=O)c(N)n2)[C@]2(C)[C@H](C)CC[C@]3(CCC(=O)[C@H]32)[C@@H](C)[C@@H]1O [Example 116, Mutilin 14-[N-(4-amino-5-carboxamidopyrimidin-2-ylmethoxycarbonyl)]carbamate]
≤ 4 µg/mL: all assays above

C=C[C@]1(C)C[C@@H](OC(=O)NC(=O)OCS(C)(=O)=O)[C@]2(C)[C@H](C)CC[C@]3(CCC(=O)[C@H]32)[C@@H](C)[C@@H]1O [Example 117, Mutilin 14-[N-(methylsulfonylmethoxycarbonyl)]carbamate]
≤ 4 µg/mL: all assays above

C=C[C@]1(C)C[C@@H](OC(=O)NC(=O)OCc2cnc(N)c(C(N)=O)n2)[C@]2(C)[C@H](C)CC[C@]3(CCC(=O)[C@H]32)[C@@H](C)[C@@H]1O [Example 119]
≤ 4 µg/mL: all assays above

C=C[C@]1(C)C[C@@H](OC(=O)NC(=O)OCCN2CCN(C=O)CC2)[C@]2(C)[C@H](C)CC[C@]3(CCC(=O)[C@H]32)[C@@H](C)[C@@H]1O [Example 120, Mutilin 14-[N-(2-(4-formylpiperazin-1-yl)ethyloxycarbonyl)]carbamate]
≤ 4 µg/mL: all assays above

C=C[C@]1(C)C[C@@H](OC(=O)NC(=O)OCCN2CCN(S(N)(=O)=O)CC2)[C@]2(C)[C@H](C)CC[C@]3(CCC(=O)[C@H]32)[C@@H](C)[C@@H]1O [Example 121]
≤ 4 µg/mL: all assays above

C=C[C@]1(C)C[C@@H](OC(=O)NC(=O)O[C@@H]2CO[C@H]3[C@@H]2OC[C@@H]3N)[C@]2(C)[C@H](C)CC[C@]3(CCC(=O)[C@H]32)[C@@H](C)[C@@H]1O [Example 122, Mutilin 14-[N-(((3R,3aR,6S,6aR)-6-amino-hexahydrofuro[3,2-b]furan-3-yl)oxycarbonyl)]carbamate]
≤ 4 µg/mL: all assays above

C=C[C@]1(C)C[C@@H](OC(=O)NC(=O)O[C@@H]2CCN(CC#N)C2)[C@]2(C)[C@H](C)CC[C@]3(CCC(=O)[C@H]32)[C@@H](C)[C@@H]1O [Example 123, Mutilin 14-[N-(1-cyanomethylpyrrolidin-3-(R)-yloxycarbonyl)]carbamate]
≤ 4 µg/mL: all assays above

C=C[C@]1(C)C[C@@H](OC(=O)NC(=O)O[C@H]2CN[C@H](C#N)C2)[C@]2(C)[C@H](C)CC[C@]3(CCC(=O)[C@H]32)[C@@H](C)[C@@H]1O [Example 126, Mutilin 14-[N-(5-(S)-cyanopyrrolidin-3-(R)-yloxycarbonyl)]carbamate]
≤ 4 µg/mL: all assays above

C=C[C@]1(C)C[C@@H](OC(=O)NC(=O)OC2CN(CC(N)=O)C2)[C@]2(C)[C@H](C)CC[C@]3(CCC(=O)[C@H]32)[C@@H](C)[C@@H]1O [Example 128, Mutilin 14-[N-(1-carbamoylmethylazetidin-3-yloxycarbonyl)]-carbamate]
≤ 4 µg/mL: all assays above

C=C[C@]1(C)C[C@@H](OC(=O)NC(=O)OC2CN(CC#N)C2)[C@]2(C)[C@H](C)CC[C@]3(CCC(=O)[C@H]32)[C@@H](C)[C@@H]1O [Example 129, Mutilin 14-[N-(1-cyanomethylazetidin-3-yloxycarbonyl)]-carbamate]
≤ 4 µg/mL: all assays above

C=C[C@]1(C)C[C@@H](OC(=O)NC(=O)OC2CN(N)C2)[C@]2(C)[C@H](C)CC[C@]3(CCC(=O)[C@H]32)[C@@H](C)[C@@H]1O [Example 130, Mutilin 14-[N-(1-aminoazetidin-3-yloxycarbonyl)]-carbamate]
≤ 4 µg/mL: all assays above
